Test results: patent publication US7592341B2, “Peptide-enhanced corneal drug delivery” (Kansas State University Research Foundation, priority 2004, dated 2009)
No end group written: not given here.

What was measured:
MDCK monolayers = test: Methotrexate uptake in epithelial monolayer experiments; type: cell-based, canine; settings: peptide washout experiments in culture; LC-ESI-MS
Protocol: This example followed the procedures of the monolayer experiments of Example 1 in order to test the uptake of fluorescently labeled methotrexate (MTX) and MTX that was not fluorescently labeled. Enhanced uptake of the fluorescently labeld MTX was not observed during co-incubation due to adverse interactions between the peptide and the modified drugs. However, in peptide washout experiments in culture, MTX uptake increased by ten-fold. Measurement of the unlabeled MTX was performed using LC-ESI-MS and a standard MTX amount for calibration and comparison purposes.

corneal epithelium [1] = test: Electron microscopy with ruthenium red of treated corneas (tight junction opening, morphology); settings: 30 minute preincubation samples; for corneal epithelial morphology by EM: 200 μM peptide or 0.01% BAC
Protocol: In order to document the in situ opening of the tight junctions, peptide treated corneas were chemically fixed at the end of a dye transport assay for morphology studies. The control and test samples were treated with the dye ruthenium red, which binds to the plasma membrane of epithelium and cannot pass the tight junctions. […] As a control, the ophthalmic preservative benzalkonium chloride (BAC) was used in place of the peptide. […] NC-1059 (Seq. ID No. 1) was compared to BAC in a paired cornea experiment: 0.01% BAC solution and 200 μM ml of the peptide were incubated individually for either 15 or 30 minutes in the test chambers. The solutions were washed. 5 mL of BSS plus was added to both chambers and then spiked with 2 mL of CF. Sample aliquots were taken (100 μL) every half hour from the endothelial chamber for 6 hours. […] At the end of the experiment treated corneas were tested for residual internalized CF and then fixed for morphological analysis by EM. […] An EM study using ruthenium red to highlight the plasma membrane and grid staining to increase the contrast was performed on the 30 minute samples used to generate FIG. 5.

corneal epithelium [2] = settings: rabbit, in vivo
Protocol: A series of in vivo corneal epithelial permeability experiments in unanaesthetized rabbits was also conducted. NC-1059 (Seq. ID No. 1) was prepared in BSS (200 μM) and placed inside the lower eyelid of one eye with the other eye receiving an equal amount of BSS alone. The solutions were held in place for 3 minutes and then washed with BSS. After the indicated incubation periods, both eyes received 300 μM NaF or CF and the dye was kept in place for 3 or 5 minutes. After the contact period the eyes were washed with 40 mL of BSS solution. Total uptake was measured for both the control and treated eyes with an OcuMetrics, Ocular Fluorophotometer. The fold changes between the peptide treated and untreated eyes were calculated (FIG. 7). […] It would also appear that adding the dye immediately after peptide exposure results in the highest permeation. […] The reduced uptake at the 6-hour time point documents the transient effects of the peptide in vivo. This transient effect has been observed under all assay conditions: in vitro, in situ and in vivo. In the final column, the fold increase is only 1.7±1.1 (n=2). Viewed alone, this fold increase is some-what misleading because the net amount of more hydrophobic NaF taken up in eyes is higher (7.8-fold) than with the CF dye.

[3] = system: small intestine epithelia; settings: reduction in epithelial resistance; cited from earlier work
corneal epithelium [4] = settings: known; cited from earlier work
rabbit cornea = test: Ex vivo transcorneal dye transport and corneal dye uptake in isolated rabbit cornea (perfusion chamber); settings: for residual internalized CF in cornea: washed, 200 μM peptide or 0.01% BAC, FIG. 6
Protocol: For rabbit in vitro studies, corneas were obtained from eyes of New Zealand White rabbits weighing 5.0 to 5.5 kg, which were anesthetized and then killed by intracardiac injection of sodium pentobarbital (97.2 mg/kg). […] For a given pair of eyes, the epithelium was scraped from one of the corneas with a scalpel blade; on the opposite eye the epithelium was left intact. […] This method prevented trauma to the corneal epithelium and distortion of the corneal curvature during clamping in the acrylic-block perfusion system. The scleral rim serves as a gasket and permits the cornea to be suspended within the corneal ring.
The retina and pigment epithelium were removed and the cornea was clamped in the corneal holder. The exposed surface area for diffusion was 1.2 cm^2 for the cornea and 1.1 cm^2 for the sclera. The perfusion chamber was made of acrylic and placed in a water jacket to maintain the temperature of the cornea and perfusion medium at 35° C. A volume of 6 mL of balanced salt solution with oxidized glutathione (BBS Plus, Alcon Laboratories Inc, Fort Worth, Tex.) at pH 7.4 was placed in the endothelial chamber. The peptides were added to the balanced salt solution with oxidized glutathione at a concentration of 1 mM. Six milliliters of each solution was added to the epithelial chamber. […] Serial 0.5-mL samples were removed from each reservoir at 30-minute intervals, and after three hours at the termination of the permeability study, the remaining 3 mL was removed. […] The corneal permeability (P) was obtained by taking into account the volume (6 mL) of the endothelial chamber and the corneal area (square centimeters), as follows: P=kin endothelial chamber volume/corneal area.
Numerous paired sets of experiments were conducted using each of the two dyes. The paired experiments included a control cornea obtained from one of the eyes of a rabbit, which was bathed in the BSS+ buffer and given 100 μL of water at the start of the experiment. In the test cornea, from the second eye of the same rabbit, 100 μL of peptide was added at time zero to produce a 150-200 μM peptide solution in BSS+. Both the water and the peptide additions were made on the apical surface of the cornea. After 20-30 minutes of incubation, dye was added to the apical bathing solution (final concentration 300 μM of dye) and allowed to remain in contact with the cornea for 6 hours. […] At 30-minute intervals, 75-100 μL aliquots were removed from the endothelial bathing chamber and the concentration of the transported dye determined. In some later experiments the corneal surfaces were rinsed 2-3 times with fresh BSS+ (wash out) to remove unbound peptide prior to the addition of the dye. The peptide is added to the apical bathing chamber.

CN(Cc1cnc2nc(N)nc(N)c2n1)c1ccc(C(=O)N[C@@H](CCC(=O)O)C(=O)O)cc1 [MTX, methotrexate]
increase of MTX uptake (MDCK monolayers): ten-fold

KKKKAARVGLGITTVLVTTIGLGVRAA [NC-1059]
corneal epithelial morphology by EM (corneal epithelium [1]): normal healthy epithelial morphology

Sodium Carboxy Fluorescein [NaF]
net amount of NaF taken up in eyes relative to CF dye (corneal epithelium [2]): 7.8 fold

ZOT: zonula occludens toxin of Vibrio cholerae, 399 a.a.
onset of effects [3]: < 20 min

benzalkonium chloride [BAC]
concentration above which BAC causes cellular damage (corneal epithelium [4]): greater than 0.005%
depth of ruthenium red staining of multilayered corneal epithelium (corneal epithelium [1]): 4-5 layers
corneal epithelial morphology by EM (corneal epithelium [1]): altered morphology with some cells appearing swollen
induced transport rates for CF in paired corneas, BAC vs NC-1059 (rabbit cornea; 15 min preincubation, FIG. 5A): appear identical
residual internalized CF in cornea (rabbit cornea; 15 min preincubation): 27.8 µg
residual internalized CF in cornea (rabbit cornea; 30 min preincubation): 40.7 µg
induced CF translocation in paired corneas, BAC vs NC-1059 (rabbit cornea; 30 minutes preincubation, FIG. 5B): begins to promote increased CF translocation after the three-hour test point
